# Test results as given in patent US9650395B2, “Antibacterial compounds and methods for use” (PTC Therapeutics, Inc., priority 2011, dated 2017).
# Where two headings read alike, the source gives them in different places.
# Key:
# [1] = tested on: Neisseria meningitidis (N. meningitidis) 13090; assay: Antibacterial activity, MIC, N. meningitidis 13090; format: cell-based; conditions: Neisseria meningitidis; N. meningitidis 13090; read-out: MIC 13090
# [2] = tested on: super sensitive Gram-negative Escherichia coli (E. coli) BAS849; assay: Antibacterial activity, microbroth dilution MIC, E. coli BAS849; format: cell-based; conditions: Escherichia coli, read-out: MIC, BAS849
# [3] = tested on: Moraxella catarrhalis (M. catarrhalis) 25238; assay: Antibacterial activity, MIC, M. catarrhalis 25238; format: cell-based; conditions: Moraxella catarrhalis, M. catarrhalis 25238; read-out: MIC 25238
# [4] = tested on: control Gram-negative E. coli 25922 strain; assay: Antibacterial activity, microbroth dilution MIC, E. coli 25922; format: cell-based, Escherichia coli; conditions: Escherichia coli; E. coli 25922, microbroth dilution; read-out: MIC, 25922
# [5] = tested on: E. coli ELZ4251 (MDR clinical isolate); assay: Antibacterial activity, MIC, MDR E. coli ELZ4251; format: cell-based, Escherichia coli; conditions: Escherichia coli, E. coli ELZ4251, MDR clinical isolate; read-out: MIC ELZ4251
# [6] = tested on: Gram-positive Staphylococcus aureus (S. aureus) 29213; assay: Antibacterial activity, microbroth dilution MIC, S. aureus 29213; format: cell-based; conditions: Staphylococcus aureus; S. aureus 29213, microbroth dilution; read-out: MIC, 29213
# [7] = tested on: E. coli ELZ4000 (MDR clinical isolate); assay: Antibacterial activity, MIC, MDR E. coli ELZ4000; format: cell-based, Escherichia coli; conditions: Escherichia coli; E. coli ELZ4000, MDR clinical isolate; read-out: MIC ELZ4000
# [8] = tested on: quinolone resistant E. coli LZ3111; assay: Antibacterial activity, MIC, quinolone resistant E. coli LZ3111; format: cell-based, Escherichia coli; conditions: Escherichia coli, read-out: MIC, LZ3111
# Excerpt: (§1) The antibacterial activity from a microbroth dilution method may be presented as the minimum inhibitory concentration (MIC in […]). The MIC value is the lowest concentration of a drug which prevents macroscopically visible bacterial growth under test conditions.
# Mutations in these regions are known to confer a high level resistance to the quinolone class of antibiotics.
# [9] = tested on: Pseudomonas aeruginosa (P. aeruginosa) 27853; assay: Antibacterial activity, MIC, P. aeruginosa 27853; format: cell-based; conditions: Pseudomonas aeruginosa, P. aeruginosa 27853; read-out: MIC 27853
# Excerpt: as §1
# Antibacterial activity of test compounds against the Gram-negative bacterium Pseudomonas aeruginosa (P. aeruginosa) 27853 is shown in Table 5.
# [10] = E. coli BAS849, microbroth dilution
SMILES,MIC [1],"MIC [2, 10]",MIC [3],MIC [4],MIC [5],MIC [6],MIC [7],MIC [8],MIC [9],MIC [2]
"CCc1cc(C(=O)O)c(=O)[nH]c1-c1ccc(N)cc1 [Cpd 3, 6-(4-aminophenyl)-5-ethyl-2-oxo-1,2-dihydropyridine-3-carboxylic acid]",< 1 µg/mL,< 1 µg/mL,< 1 µg/mL,3.5 to 12.5 µg/mL,12.5 to 150 µg/mL,12.5 to 150 µg/mL,12.5 to 150 µg/mL,12.5 to 150 µg/mL,,
"CCc1cc(C(=O)O)c(=O)[nH]c1-c1ccc(N2CCCC2)cc1F [Cpd 38, 5-ethyl-6-[2-fluoro-4-(pyrrolidin-1-yl)phenyl]-2-oxo-1,2-dihydropyridine-3-carboxylic acid]",,< 1 µg/mL,< 1 µg/mL,1 to 3.5 µg/mL,12.5 to 150 µg/mL,3.5 to 12.5 µg/mL,12.5 to 150 µg/mL,12.5 to 150 µg/mL,,
"CCc1cc(C(=O)O)c(=O)[nH]c1-c1ccc(N(C)C)cc1F [Cpd 53, 6-[4-(dimethylamino)-2-fluorophenyl]-5-ethyl-2-oxo-1,2-dihydropyridine-3-carboxylic acid]",,< 1 µg/mL,< 1 µg/mL,1 to 3.5 µg/mL,,12.5 to 150 µg/mL,,,,
"CCc1cc(C(=O)O)c(=O)[nH]c1-c1ccc(N(C)c2ccccc2)cc1 [Cpd 158, 5-ethyl-6-{4-[methyl(phenyl)amino]phenyl}-2-oxo-1,2-dihydropyridine-3-carboxylic acid]",,< 1 µg/mL,,3.5 to 12.5 µg/mL,12.5 to 150 µg/mL,3.5 to 12.5 µg/mL,12.5 to 150 µg/mL,12.5 to 150 µg/mL,12.5 to 150 µg/mL,
"CCc1cc(C(=O)O)c(=O)[nH]c1-c1ccc(N2CCC(NCc3ccccc3)C2)cc1.Cl (stereo not drawn) [Cpd 174, 6-{4-[3-(benzylamino)pyrrolidin-1-yl]phenyl}-5-ethyl-2-oxo-1,2-dihydropyridine-3-carboxylic acid hydrochloride]",,< 1 µg/mL,,< 1 µg/mL,12.5 to 150 µg/mL,12.5 to 150 µg/mL,12.5 to 150 µg/mL,12.5 to 150 µg/mL,12.5 to 150 µg/mL,
"CCc1cc(C(=O)O)c(=O)[nH]c1-c1ccc(N2CCC(CNCc3ccccc3)C2)cc1.Cl (stereo not drawn) [Cpd 182, 6-(4-{3-[(benzylamino)methyl]pyrrolidin-1-yl}phenyl)-5-ethyl-2-oxo-1,2-dihydropyridine-3-carboxylic acid hydrochloride]",< 1 µg/mL,< 1 µg/mL,< 1 µg/mL,< 1 µg/mL,12.5 to 150 µg/mL,12.5 to 150 µg/mL,12.5 to 150 µg/mL,12.5 to 150 µg/mL,,
"CCc1cc(C(=O)O)c(=O)[nH]c1-c1ccc(N2CCC(CN(C)C)C2)cc1.O=C(O)C(F)(F)F (stereo not drawn) [Cpd 185, 6-(4-{3-[(dimethylamino)methyl]pyrrolidin-1-yl}phenyl)-5-ethyl-2-oxo-1,2-dihydropyridine-3-carboxylic acid trifluoroacetate]",< 1 µg/mL,,1 to 3.5 µg/mL,3.5 to 12.5 µg/mL,12.5 to 150 µg/mL,12.5 to 150 µg/mL,12.5 to 150 µg/mL,12.5 to 150 µg/mL,,< 1 µg/mL
"CCc1cc(C(=O)O)c(=O)[nH]c1-c1ccc(N2C[C@H]3CCN(C)[C@H]3C2)cc1.O=C(O)C(F)(F)F [Cpd 187, 5-ethyl-6-{4-[(3aR,6aR)-1-methylhexahydropyrrolo[3,4-b]pyrrol-5(1H)-yl]phenyl}-2-oxo-1,2-dihydropyridine-3-carboxylic acid trifluoroacetate]",< 1 µg/mL,,1 to 3.5 µg/mL,3.5 to 12.5 µg/mL,12.5 to 150 µg/mL,12.5 to 150 µg/mL,12.5 to 150 µg/mL,12.5 to 150 µg/mL,,< 1 µg/mL
"CCc1cc(C(=O)O)c(=O)[nH]c1-c1ccc(N2C[C@H]3CC[C@@H](N)[C@H]3C2)cc1.O=C(O)C(F)(F)F [Cpd 202, 6-{4-[(3aR,4R,6aS)-4-aminohexahydrocyclopenta[c]pyrrol-2(1H)-yl]phenyl}-5-ethyl-2-oxo-1,2-dihydropyridine-3-carboxylic acid trifluoroacetate]",,,,12.5 to 150 µg/mL,12.5 to 150 µg/mL,12.5 to 150 µg/mL,12.5 to 150 µg/mL,12.5 to 150 µg/mL,12.5 to 150 µg/mL,1 to 3.5 µg/mL
"CCc1cc(C(=O)O)c(=O)[nH]c1-c1ccc(N2C[C@H]3CCC[C@H](N)[C@H]3C2)cc1.O=C(O)C(F)(F)F [Cpd 203, 6-{4-[(3aR,4S,7aS)-4-aminooctahydro-2H-isoindol-2-yl]phenyl}-5-ethyl-2-oxo-1,2-dihydropyridine-3-carboxylic acid trifluoroacetate]",,,,12.5 to 150 µg/mL,12.5 to 150 µg/mL,12.5 to 150 µg/mL,12.5 to 150 µg/mL,12.5 to 150 µg/mL,12.5 to 150 µg/mL,1 to 3.5 µg/mL
"CCc1cc(C(=O)O)c(=O)[nH]c1-c1ccc(N2C[C@H](CN)[C@@H](C)C2)cc1 [Cpd 216, 6-{4-[(3S,4R)-3-(aminomethyl)-4-methylpyrrolidin-1-yl]phenyl}-5-ethyl-2-oxo-1,2-dihydropyridine-3-carboxylic acid]",,12.5 to 150 µg/mL,,12.5 to 150 µg/mL,12.5 to 150 µg/mL,12.5 to 150 µg/mL,12.5 to 150 µg/mL,12.5 to 150 µg/mL,12.5 to 150 µg/mL,
"CCc1cc(C(=O)O)c(=O)[nH]c1-c1ccc(N2C[C@H]3CCC[C@H](N=[N+]=[N-])[C@H]3C2)cc1.O=C(O)C(F)(F)F [Cpd 244, 6-{4-[(3aR,4S,7aS)-4-azidooctahydro-2H-isoindol-2-yl]phenyl}-5-ethyl-2-oxo-1,2-dihydropyridine-3-carboxylic acid trifluoroacetate]",,,,12.5 to 150 µg/mL,12.5 to 150 µg/mL,1 to 3.5 µg/mL,12.5 to 150 µg/mL,12.5 to 150 µg/mL,12.5 to 150 µg/mL,< 1 µg/mL
"CCc1c(-c2ccc(N3CC(N)C4(CC4)C3)cc2)[nH]c(=O)c(C(=O)O)c1O.O=C(O)C(F)(F)F (stereo not drawn) [Cpd 252, 6-[4-(7-amino-5-azaspiro[2.4]hept-5-yl)phenyl]-5-ethyl-4-hydroxy-2-oxo-1,2-dihydropyridine-3-carboxylic acid trifluoroacetate]",,,,1 to 3.5 µg/mL,12.5 to 150 µg/mL,12.5 to 150 µg/mL,12.5 to 150 µg/mL,3.5 to 12.5 µg/mL,12.5 to 150 µg/mL,< 1 µg/mL
"CCc1c(-c2ccc(N3C[C@H]4CN(C)C[C@H]4C3)cc2)[nH]c(=O)c(C(=O)O)c1O.Cl [Cpd 273, 5-ethyl-4-hydroxy-6-{4-[(3aR,6aS)-5-methylhexahydropyrrolo[3,4-c]pyrrol-2(1H)-yl]phenyl}-2-oxo-1,2-dihydropyridine-3-carboxylic acid hydrochloride]",1 to 3.5 µg/mL,< 1 µg/mL,1 to 3.5 µg/mL,1 to 3.5 µg/mL,12.5 to 150 µg/mL,12.5 to 150 µg/mL,12.5 to 150 µg/mL,12.5 to 150 µg/mL,,
"CCc1c(-c2ccc(N3CCC(C)(CN)C3)cc2)[nH]c(=O)c(C(=O)O)c1O (stereo not drawn) [Cpd 290, 6-{4-[3-(aminomethyl)-3-methylpyrrolidin-1-yl]phenyl}-5-ethyl-4-hydroxy-2-oxo-1,2-dihydropyridine-3-carboxylic acid]",,< 1 µg/mL,,1 to 3.5 µg/mL,3.5 to 12.5 µg/mL,12.5 to 150 µg/mL,12.5 to 150 µg/mL,3.5 to 12.5 µg/mL,12.5 to 150 µg/mL,
"CCc1cc(C(=O)O)c(=O)[nH]c1-c1ccc(N2CC=CC2)cc1 [Cpd 301, 6-[4-(2,5-dihydro-1H-pyrrol-1-yl)phenyl]-5-ethyl-2-oxo-1,2-dihydropyridine-3-carboxylic acid]",,< 1 µg/mL,,< 1 µg/mL,12.5 to 150 µg/mL,< 1 µg/mL,12.5 to 150 µg/mL,12.5 to 150 µg/mL,3.5 to 12.5 µg/mL,
